Measurements as given in BindingDB's records for doi:10.1016/j.str.2004.10.004 (Plexxikon, 2004).

Legend:
[1] = biological target: T1, Isoform 4 of Dual 3',5'-cyclic-AMP and -GMP phosphodiesterase 11A (PDE11A1) 35-489] (Homo sapiens, UniProt Q9HCR9); assay: Phosphodiesterase (PDE) Inhibition Assay
T1 sequence (Q9HCR9 whole entry): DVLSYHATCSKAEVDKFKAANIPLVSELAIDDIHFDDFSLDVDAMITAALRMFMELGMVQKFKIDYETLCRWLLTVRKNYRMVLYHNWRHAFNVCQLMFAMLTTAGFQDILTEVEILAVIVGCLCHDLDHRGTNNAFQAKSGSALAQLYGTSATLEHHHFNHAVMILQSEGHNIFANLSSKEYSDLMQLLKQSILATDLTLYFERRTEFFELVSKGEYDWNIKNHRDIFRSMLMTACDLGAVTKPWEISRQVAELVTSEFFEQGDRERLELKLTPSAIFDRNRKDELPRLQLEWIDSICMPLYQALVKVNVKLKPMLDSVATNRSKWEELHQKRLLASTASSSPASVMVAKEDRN

[2] = biological target: T2, cAMP and cAMP-inhibited cGMP 3',5'-cyclic phosphodiesterase 10A [432-779] (Homo sapiens, UniProt Q9Y233); assay: Phosphodiesterase (PDE) Inhibition Assay
T2 construct: 432-779
T2 sequence (Q9Y233 708-1055): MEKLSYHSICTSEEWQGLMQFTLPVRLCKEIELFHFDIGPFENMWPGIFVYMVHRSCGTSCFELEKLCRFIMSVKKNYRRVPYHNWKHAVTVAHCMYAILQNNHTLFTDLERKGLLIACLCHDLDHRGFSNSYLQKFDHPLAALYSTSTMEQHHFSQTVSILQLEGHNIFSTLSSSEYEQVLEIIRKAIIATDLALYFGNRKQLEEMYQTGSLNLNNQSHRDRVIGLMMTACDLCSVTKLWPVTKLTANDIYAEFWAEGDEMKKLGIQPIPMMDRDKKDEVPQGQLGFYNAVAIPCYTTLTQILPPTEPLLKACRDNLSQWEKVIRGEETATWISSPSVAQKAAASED

[3] = biological target: High affinity cAMP-specific and IBMX-insensitive 3',5'-cyclic phosphodiesterase 8A (Homo sapiens, UniProt O60658); assay: Phosphodiesterase (PDE) Inhibition Assay
High affinity cAMP-specific and IBMX-insensitive 3',5'-cyclic phosphodiesterase 8A, sequence (O60658 whole entry): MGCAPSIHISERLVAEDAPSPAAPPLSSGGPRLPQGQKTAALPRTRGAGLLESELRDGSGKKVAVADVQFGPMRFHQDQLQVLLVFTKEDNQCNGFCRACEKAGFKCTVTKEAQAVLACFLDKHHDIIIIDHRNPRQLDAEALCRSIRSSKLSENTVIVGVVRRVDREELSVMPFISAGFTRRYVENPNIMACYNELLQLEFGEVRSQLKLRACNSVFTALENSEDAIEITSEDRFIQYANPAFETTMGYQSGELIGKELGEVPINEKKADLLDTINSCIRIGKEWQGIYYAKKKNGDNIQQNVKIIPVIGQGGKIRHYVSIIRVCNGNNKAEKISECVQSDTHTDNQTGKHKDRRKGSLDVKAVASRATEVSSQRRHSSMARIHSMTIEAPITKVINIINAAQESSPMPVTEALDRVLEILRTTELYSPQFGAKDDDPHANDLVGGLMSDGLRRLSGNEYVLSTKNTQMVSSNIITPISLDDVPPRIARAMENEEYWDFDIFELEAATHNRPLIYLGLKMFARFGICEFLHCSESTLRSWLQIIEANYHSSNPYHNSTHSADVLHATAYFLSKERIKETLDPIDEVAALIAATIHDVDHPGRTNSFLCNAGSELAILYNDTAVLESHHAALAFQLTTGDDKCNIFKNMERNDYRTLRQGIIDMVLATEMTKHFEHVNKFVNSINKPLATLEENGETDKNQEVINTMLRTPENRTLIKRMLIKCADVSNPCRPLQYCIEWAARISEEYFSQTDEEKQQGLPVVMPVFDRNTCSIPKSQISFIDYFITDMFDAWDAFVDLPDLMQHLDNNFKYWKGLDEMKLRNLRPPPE

[4] = biological target: T3, cGMP-dependent 3',5'-cyclic phosphodiesterase [574-941] (Homo sapiens, UniProt O00408); assay: Phosphodiesterase (PDE) Inhibition Assay
T3 construct: 574-941
T3 sequence (O00408 574-941): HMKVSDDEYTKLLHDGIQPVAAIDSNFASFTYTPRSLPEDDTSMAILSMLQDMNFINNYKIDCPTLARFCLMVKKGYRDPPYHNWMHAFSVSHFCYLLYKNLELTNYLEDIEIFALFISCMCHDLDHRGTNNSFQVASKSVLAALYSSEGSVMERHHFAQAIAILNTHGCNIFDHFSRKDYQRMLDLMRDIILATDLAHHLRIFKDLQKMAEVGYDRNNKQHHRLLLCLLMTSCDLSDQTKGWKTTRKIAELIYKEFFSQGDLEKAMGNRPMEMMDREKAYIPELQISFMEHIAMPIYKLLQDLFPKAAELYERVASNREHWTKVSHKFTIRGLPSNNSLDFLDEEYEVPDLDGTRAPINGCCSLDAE

[5] = biological target: Dual specificity calcium/calmodulin-dependent 3',5'-cyclic nucleotide phosphodiesterase 1B (Homo sapiens, UniProt Q01064); assay: Phosphodiesterase (PDE) Inhibition Assay; conditions: pH 7.5; 30 °C
Dual specificity calcium/calmodulin-dependent 3',5'-cyclic nucleotide phosphodiesterase 1B, sequence (Q01064 whole entry): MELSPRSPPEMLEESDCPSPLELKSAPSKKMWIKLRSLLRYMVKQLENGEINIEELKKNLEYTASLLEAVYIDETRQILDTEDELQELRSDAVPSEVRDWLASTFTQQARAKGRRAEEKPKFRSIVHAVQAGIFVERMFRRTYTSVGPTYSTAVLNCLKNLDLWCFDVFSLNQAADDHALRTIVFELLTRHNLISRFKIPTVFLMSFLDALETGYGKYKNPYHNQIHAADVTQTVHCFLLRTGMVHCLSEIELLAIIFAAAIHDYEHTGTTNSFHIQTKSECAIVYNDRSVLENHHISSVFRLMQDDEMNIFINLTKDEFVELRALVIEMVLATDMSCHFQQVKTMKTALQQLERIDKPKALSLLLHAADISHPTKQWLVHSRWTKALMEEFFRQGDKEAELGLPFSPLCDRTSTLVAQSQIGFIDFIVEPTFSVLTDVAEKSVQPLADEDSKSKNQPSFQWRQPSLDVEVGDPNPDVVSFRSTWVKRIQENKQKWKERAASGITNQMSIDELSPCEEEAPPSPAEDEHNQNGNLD

[6] = biological target: T4, cAMP-specific 3',5'-cyclic phosphodiesterase 7B [91-450] (Homo sapiens, UniProt Q9NP56); assay: Phosphodiesterase (PDE) Inhibition Assay
T4 construct: 91-450
T4 sequence (Q9NP56 91-450): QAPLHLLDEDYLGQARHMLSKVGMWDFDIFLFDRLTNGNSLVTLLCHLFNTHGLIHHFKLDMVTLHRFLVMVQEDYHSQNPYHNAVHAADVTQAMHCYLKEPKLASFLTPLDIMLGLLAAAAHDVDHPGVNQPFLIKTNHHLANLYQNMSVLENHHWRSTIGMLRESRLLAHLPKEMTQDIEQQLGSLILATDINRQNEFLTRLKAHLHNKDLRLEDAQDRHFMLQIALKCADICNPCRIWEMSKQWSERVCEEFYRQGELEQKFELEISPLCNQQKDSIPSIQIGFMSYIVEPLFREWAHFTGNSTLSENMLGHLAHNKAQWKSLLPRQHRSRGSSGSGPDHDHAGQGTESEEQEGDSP

[7] = biological target: T5, cGMP-inhibited 3',5'-cyclic phosphodiesterase 3B [650-1084] (Homo sapiens, UniProt Q13370); assay: Phosphodiesterase (PDE) Inhibition Assay
T5 construct: 650-1084
T5 sequence (Q13370 650-1084): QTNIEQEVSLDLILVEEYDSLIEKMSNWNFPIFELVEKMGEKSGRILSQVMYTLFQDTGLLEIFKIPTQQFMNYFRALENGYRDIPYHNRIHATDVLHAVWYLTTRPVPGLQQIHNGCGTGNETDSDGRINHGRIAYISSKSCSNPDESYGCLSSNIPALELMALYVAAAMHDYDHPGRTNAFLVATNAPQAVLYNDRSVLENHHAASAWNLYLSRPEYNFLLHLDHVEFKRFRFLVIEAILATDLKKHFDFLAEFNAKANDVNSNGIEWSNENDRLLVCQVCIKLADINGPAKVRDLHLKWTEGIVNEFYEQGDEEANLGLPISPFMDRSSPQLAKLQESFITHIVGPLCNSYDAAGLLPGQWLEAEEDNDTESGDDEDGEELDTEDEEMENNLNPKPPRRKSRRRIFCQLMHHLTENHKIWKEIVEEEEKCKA

[8] = biological target: T6, High affinity cGMP-specific 3',5'-cyclic phosphodiesterase 9A [226-593] (Homo sapiens, UniProt O76083)
T6 construct: 226-593
T6 sequence (O76083 226-593): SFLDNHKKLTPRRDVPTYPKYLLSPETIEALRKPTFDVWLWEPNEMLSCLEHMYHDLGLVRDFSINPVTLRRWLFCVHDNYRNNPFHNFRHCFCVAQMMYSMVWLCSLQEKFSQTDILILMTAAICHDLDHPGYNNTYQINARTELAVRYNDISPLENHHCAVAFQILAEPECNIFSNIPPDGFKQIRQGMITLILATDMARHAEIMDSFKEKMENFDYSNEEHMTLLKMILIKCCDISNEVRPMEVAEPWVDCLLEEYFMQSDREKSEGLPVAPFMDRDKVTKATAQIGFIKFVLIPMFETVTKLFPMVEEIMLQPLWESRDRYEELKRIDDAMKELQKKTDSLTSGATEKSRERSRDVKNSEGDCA

[9] = biological target: T7, cGMP-specific 3',5'-cyclic phosphodiesterase [531-875] (Homo sapiens, UniProt O76074); assay: Phosphodiesterase (PDE) Inhibition Assay
T7 construct: 531-875

[10] = biological target: cAMP-specific 3',5'-cyclic phosphodiesterase 4D [372-376,381-715,S375G,I381V,S383G,G384S,V385H,K386M) (Homo sapiens, UniProt Q08499, S375G/I381V/S383G/G384S/V385H/K386M); assay: Phosphodiesterase (PDE) Inhibition Assay

SMILES	IC50 [2] [µM]	IC50 [3] [µM]	IC50 [4] [µM]	IC50 [1] [µM]	IC50 [5] [µM]	IC50 [6] [µM]	IC50 [7] [µM]	IC50 [8] [µM]	IC50 ([4]; pH 7.5, 30 °C) [µM]	IC50 [9] [µM]	IC50 [10] [µM]
COc1ccc([C@@H]2CNC(=O)C2)cc1OC1CCCC1 (racemic) [Adeo]		> 200		> 200	> 200	> 200	> 200	> 200	> 200		
COc1ccc(C(=O)Nc2c(Cl)cncc2Cl)cc1OC1CCCC1 [3-(cyclopentyloxy)-N-(3,5-dichloropyridin-4-yl)-4-methoxybenzamide]		> 200	54	1.6	68		11	> 200		3.5	
COc1cc(-c2ccc(=O)[nH]n2)ccc1OC(F)F [6-[4-(difluoromethoxy)-3-methoxyphenyl]-2,3-dihydropyridazin-3-one]	14	160		140	> 200		1.5	> 200	> 200	81	
COc1ccc(C(C)=NOC(N)=O)cc1OC1CCCC1 [(E)-{1-[3-(cyclopentyloxy)-4-methoxyphenyl]ethylidene}amino carbamate]	27	120		57	190	0.99	9.4	> 200	89	53	1

More lines, main results first:

IC50 [2] [µM]	IC50 [3] [µM]	IC50 [4] [µM]	SMILES	IC50 [1] [µM]	IC50 [5] [µM]	IC50 [6] [µM]	IC50 [7] [µM]	IC50 [8] [µM]	IC50 ([4]; pH 7.5, 30 °C) [µM]	IC50 [9] [µM]	IC50 [10] [µM]
0.88	57	3.1	CCCc1nc(C)c2c(=O)[nH]c(-c3cc(S(=O)(=O)N4CCN(CC)CC4)ccc3OCC)nn12	0.24							
19	> 200	130	CN1CC(=O)N2[C@H](c3ccc4c(c3)OCO4)c3[nH]c4ccccc4c3C[C@@H]2C1=O		50	74	280	150			
63	> 200		CCCOc1cc(C2(C)CNC(=O)O2)ccc1OC (racemic) [5-(4-methoxy-3-propoxyphenyl)-5-methyl-1,3-oxazolidin-2-one]	> 200	> 200		> 200	> 200	> 200	> 200	
73	7		COc1ccc(C2(C#N)CCC(C(=O)O)CC2)cc1OC1CCCC1 (stereo not drawn) [Ariflo]	21	87		87	> 200	160	53	
> 200	> 200	> 200	O=C(Nc1c(Cl)cncc1Cl)c1ccc(OC(F)F)c(OCC2CC2)c1 [DAXAS]	25	> 200	> 200	> 200	> 200		17	
